These results are taken from publication PMC7180638, “Synthesis of Pyrrolidine Monocyclic Analogues of Pochonicine and Its Stereoisomers: Pursuit of Simplified Structures and Potent β-N-Acetylhexosaminidase Inhibition” (Molecules, 2020).

Holding throughout (type): biochemical
The target in experiment [1] is β-N-Acetylhexosaminidase (Jack bean). In words: β-N-Acetylhexosaminidase (Jack bean) inhibition. To be noted: for IC50: β-N-Acetylhexosaminidase (β-GlcNAcase). The procedure: (§1) With rat intestinal maltase as an exception, other enzymes were purchased from Sigma-Aldrich Chemical Co. (St. Louis, MO, USA). Brush border membranes prepared from rat small intestine according to the method of Kessler et al. were assayed at pH 6.8 for rat intestinal maltase using maltose. The released D-glucose was determined colorimetrically using the Glucose CII-test Wako (Wako Pure Chemical Ind.; Osaka, Japan). Other glycosidase activities were determined using an appropriate p-nitrophenyl glycoside as substrate in a buffer solution at the optimal pH value of each enzyme. The reaction was stopped by adding 400 mM Na2CO3. The released p-nitrophenol was measured spectrometrically at 400 nm.

For another experiment, the target named is β-Mannosidase (Snail). Briefly: β-Mannosidase (snail) inhibition. The procedure:
as §1

Experiment [2] addresses β-N-Acetylhexosaminidase (Bovine liver). Briefly: β-N-Acetylhexosaminidase (bovine liver) inhibition. To be noted: for IC50: β-N-Acetylhexosaminidase (β-GlcNAcase); for Inhibition % at 1000 μM: β-N-Acetylhexosaminidase. The procedure:
as §1

For experiment [3], the target named is T1, β-Glucuronidase (E. coli) (Escherichia coli, UniProt P05804).
T1 construct: purchased Sigma-Aldrich Chemical Co
T1 sequence (P05804 whole entry): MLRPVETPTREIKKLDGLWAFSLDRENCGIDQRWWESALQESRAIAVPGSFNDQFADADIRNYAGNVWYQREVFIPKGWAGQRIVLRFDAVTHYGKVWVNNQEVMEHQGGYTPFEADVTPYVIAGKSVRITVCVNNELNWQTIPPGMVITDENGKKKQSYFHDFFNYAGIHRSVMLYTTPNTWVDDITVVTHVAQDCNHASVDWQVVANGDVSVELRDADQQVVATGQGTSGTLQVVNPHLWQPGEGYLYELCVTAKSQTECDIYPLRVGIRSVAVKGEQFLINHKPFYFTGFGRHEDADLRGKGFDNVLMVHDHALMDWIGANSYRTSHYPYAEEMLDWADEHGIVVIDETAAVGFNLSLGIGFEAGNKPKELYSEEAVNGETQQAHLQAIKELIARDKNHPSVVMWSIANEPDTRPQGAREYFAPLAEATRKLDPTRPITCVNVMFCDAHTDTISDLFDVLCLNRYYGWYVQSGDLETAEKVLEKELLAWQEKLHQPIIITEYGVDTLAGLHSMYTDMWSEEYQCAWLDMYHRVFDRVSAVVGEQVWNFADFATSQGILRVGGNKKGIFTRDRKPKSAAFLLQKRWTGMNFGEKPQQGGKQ
Briefly: β-Glucuronidase (E. coli) inhibition. The procedure:
as §1

Experiment [4] addresses T2, α-Galactosidase (Coffee beans) (Coffea arabica, UniProt Q42656).
T2 construct: purchased Sigma-Aldrich Chemical Co
In words: α-Galactosidase (coffee beans) inhibition. Here is the method: as §1

Experiment [5] concerns the target T3, α-N-Acetylgalactosaminidase (Chicken liver) (Gallus gallus, UniProt Q90744).
T3 construct: purchased Sigma-Aldrich Chemical Co; host or cells: chicken liver
T3 sequence (Q90744 1-405): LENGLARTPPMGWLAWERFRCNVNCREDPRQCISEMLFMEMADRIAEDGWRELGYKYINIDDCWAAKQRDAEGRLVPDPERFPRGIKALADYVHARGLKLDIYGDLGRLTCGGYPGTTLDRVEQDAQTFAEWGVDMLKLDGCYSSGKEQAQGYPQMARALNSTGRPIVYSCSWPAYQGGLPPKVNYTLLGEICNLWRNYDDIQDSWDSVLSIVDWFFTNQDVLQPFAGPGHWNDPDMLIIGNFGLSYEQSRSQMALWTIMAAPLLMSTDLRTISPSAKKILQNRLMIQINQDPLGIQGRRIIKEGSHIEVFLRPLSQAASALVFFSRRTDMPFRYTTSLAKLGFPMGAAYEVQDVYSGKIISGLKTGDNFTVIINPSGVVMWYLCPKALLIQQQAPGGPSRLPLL
Briefly: α-N-Acetylgalactosaminidase (chicken liver) inhibition. The procedure:
as §1

The target in experiment [6] is T4, β-Glucuronidase (Bovine liver) (Bos taurus, UniProt A3KMY8).
T4 construct: purchased Sigma-Aldrich Chemical Co; host or cells: bovine liver
T4 sequence (A3KMY8 1-652): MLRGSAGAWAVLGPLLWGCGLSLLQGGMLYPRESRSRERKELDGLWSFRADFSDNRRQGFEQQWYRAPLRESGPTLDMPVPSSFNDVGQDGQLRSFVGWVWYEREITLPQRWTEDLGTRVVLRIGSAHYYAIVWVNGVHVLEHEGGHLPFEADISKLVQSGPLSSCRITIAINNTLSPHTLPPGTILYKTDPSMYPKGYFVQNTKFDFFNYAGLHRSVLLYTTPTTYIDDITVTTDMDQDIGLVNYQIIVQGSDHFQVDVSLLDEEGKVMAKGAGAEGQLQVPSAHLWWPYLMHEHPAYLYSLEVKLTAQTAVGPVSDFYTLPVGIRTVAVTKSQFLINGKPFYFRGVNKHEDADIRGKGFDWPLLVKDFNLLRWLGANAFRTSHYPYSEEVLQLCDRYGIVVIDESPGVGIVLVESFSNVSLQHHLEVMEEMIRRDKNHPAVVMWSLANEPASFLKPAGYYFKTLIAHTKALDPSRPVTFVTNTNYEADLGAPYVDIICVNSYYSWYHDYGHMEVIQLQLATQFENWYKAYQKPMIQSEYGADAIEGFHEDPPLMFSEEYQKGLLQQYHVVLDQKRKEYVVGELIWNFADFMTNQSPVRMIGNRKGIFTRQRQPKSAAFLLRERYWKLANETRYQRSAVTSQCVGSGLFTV
Briefly: β-Glucuronidase (bovine liver) inhibition. Here is the method:
as §1

The target of experiment [7] is T5, α-L-Fucosidase (Bovine kidney) (Bos taurus, UniProt Q2KIM0).
T5 construct: purchased Sigma-Aldrich Chemical Co; host or cells: bovine kidney
T5 sequence (Q2KIM0 23-468): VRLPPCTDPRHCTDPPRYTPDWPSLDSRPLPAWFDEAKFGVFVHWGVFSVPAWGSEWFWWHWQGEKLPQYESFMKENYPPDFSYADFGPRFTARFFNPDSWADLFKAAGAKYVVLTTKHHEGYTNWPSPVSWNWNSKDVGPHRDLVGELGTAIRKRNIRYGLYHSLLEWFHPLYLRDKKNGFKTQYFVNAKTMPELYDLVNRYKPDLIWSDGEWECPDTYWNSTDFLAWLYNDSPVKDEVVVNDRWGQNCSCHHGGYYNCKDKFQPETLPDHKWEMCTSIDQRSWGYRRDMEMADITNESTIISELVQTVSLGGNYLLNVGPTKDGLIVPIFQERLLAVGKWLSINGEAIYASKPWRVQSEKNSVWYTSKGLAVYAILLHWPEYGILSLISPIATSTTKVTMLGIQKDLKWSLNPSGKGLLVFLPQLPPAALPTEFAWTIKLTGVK
In words: α-L-Fucosidase (bovine kidney) inhibition. The procedure:
as §1

In the next experiment the target is α-Glucosidase (Yeast) (Saccharomyces cerevisiae, UniProt P53341). Briefly: α-Glucosidase (yeast) inhibition. Here is the method: as §1
Chain of α-Glucosidase (Yeast) (P53341 whole entry): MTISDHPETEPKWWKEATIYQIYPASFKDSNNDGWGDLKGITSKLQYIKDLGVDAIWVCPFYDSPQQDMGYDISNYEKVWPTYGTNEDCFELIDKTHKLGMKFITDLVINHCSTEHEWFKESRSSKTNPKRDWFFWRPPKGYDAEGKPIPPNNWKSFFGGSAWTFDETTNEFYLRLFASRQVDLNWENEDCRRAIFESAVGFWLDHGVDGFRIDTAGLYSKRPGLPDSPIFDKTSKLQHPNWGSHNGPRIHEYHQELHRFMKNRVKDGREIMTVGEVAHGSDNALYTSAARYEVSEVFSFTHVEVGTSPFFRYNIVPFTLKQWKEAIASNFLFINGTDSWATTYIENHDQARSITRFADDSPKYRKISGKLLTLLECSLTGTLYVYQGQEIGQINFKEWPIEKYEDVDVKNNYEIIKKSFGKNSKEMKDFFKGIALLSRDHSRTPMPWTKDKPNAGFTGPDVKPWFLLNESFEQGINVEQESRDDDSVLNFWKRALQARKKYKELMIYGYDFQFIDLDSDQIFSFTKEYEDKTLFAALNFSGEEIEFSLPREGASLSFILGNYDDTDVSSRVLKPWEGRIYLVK
The mark [8] stands for this setting: 1000 μM, read-out: Inhibition % at 1000 μM.
Setting [9] is: read-out: Inhibition % at 1000 μM.
Where [10] appears, read: α-Glucosidase, Yeast, read-out: IC50.

Where a name gives a salt, the structure may show the parent alone. Read-outs that look alike come from different tables or passages of the source.

T2 sequence (Q42656 16-378): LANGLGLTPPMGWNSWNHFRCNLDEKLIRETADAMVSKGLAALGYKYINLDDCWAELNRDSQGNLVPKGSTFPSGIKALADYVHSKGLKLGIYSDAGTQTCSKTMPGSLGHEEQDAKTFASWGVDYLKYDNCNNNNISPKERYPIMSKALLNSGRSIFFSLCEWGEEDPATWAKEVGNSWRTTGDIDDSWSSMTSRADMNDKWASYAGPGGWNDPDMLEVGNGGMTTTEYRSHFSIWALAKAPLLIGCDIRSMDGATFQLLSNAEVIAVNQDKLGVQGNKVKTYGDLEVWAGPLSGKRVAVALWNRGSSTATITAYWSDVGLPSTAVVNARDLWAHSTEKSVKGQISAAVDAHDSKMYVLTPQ

Turning to `CC(=O)NC[C@H]1N[C@@H](CO)[C@@H](O)[C@@H]1O` [E-10a, 1-N-acetylamino-2,5-imino-1,2,5-trideoxy-D-glucitol hydrochloride], the IC50 (as a rule, the midpoint of a concentration-inhibition curve) is 10 µM in experiment [1] (read-out: IC50), “NI (No Inhibition (less than 50% at 1000 μM))” at β-Mannosidase (Snail) and 95 µM in experiment [2] (read-out: IC50). Moreover, the “Inhibition % at 1000 μM” value with β-Mannosidase (Snail) was determined as 25.8%. Also, the inhibition at 1000 µM in experiment [3] (setting [8]) was 0%; in experiment [3] (read-out: IC50) it was less than 50%; in experiment [4] (setting [8]), 0.36%; in [4] (read-out: IC50) it was less than 50%; in [5] (setting [8]), 1.4%; in experiment [5] (read-out: IC50), less than 50%. Moreover, the inhibition at 1000 µM was 0% in [6] (setting [8]); less than 50% in experiment [6] (read-out: IC50); 41.7% in experiment [7] (setting [8]); less than 50% in experiment [7] (read-out: IC50); 0% on α-Glucosidase (Yeast) (setting [9]); less than 50% at α-Glucosidase (Yeast) (setting [10]).

Take `CC(=O)NC[C@@H]1N[C@@H](CO)[C@@H](O)[C@@H]1O` [E-10b, 1-N-acetylamino-2,5-imino-1,2,5-trideoxy-L-iditol hydrochloride]: the results for the IC50 (in experiment [1] (read-out: IC50); against β-Mannosidase (Snail); in [2]) were 115 µM, “NI (No Inhibition (less than 50% at 1000 μM))” and “NI (No Inhibition (less than 50% at 1000 μM))”, respectively. The “Inhibition % at 1000 μM” value with β-Mannosidase (Snail) stood at 0%; in [2], 38.4%. In addition, the inhibition at 1000 µM was 0% in experiment [3] (setting [8]); less than 50% in [3] (read-out: IC50); 0% in experiment [4] (setting [8]); less than 50% in experiment [4] (read-out: IC50); 0.5% in experiment [5] (setting [8]); less than 50% in experiment [5] (read-out: IC50). Besides, the inhibition at 1000 µM in experiment [6] (setting [8]) was 4.3%; in experiment [6] (read-out: IC50), less than 50%; in experiment [7] (setting [8]), 20.5%; in experiment [7] (read-out: IC50), less than 50%; on α-Glucosidase (Yeast) (setting [9]), 0%; at α-Glucosidase (Yeast) (setting [10]), less than 50%.

Regarding `CC(=O)NC[C@@H]1N[C@H](CO)[C@H](O)[C@H]1O` [F-10a, 1-N-acetylamino-2,5-imino-1,2,5-trideoxy-L-glucitol hydrochloride], the IC50 result (in experiment [1]; against β-Mannosidase (Snail); in [2]) was “NI (No Inhibition (less than 50% at 1000 μM))” in each case. Moreover, the “Inhibition % at 1000 μM” value is listed as 42% in experiment [1] (β-N-Acetylhexosaminidase, 1000 μM); 3.23% in the experiment with β-Mannosidase (Snail); 23.2% in experiment [2]. The inhibition at 1000 µM in [3] (setting [8]) is 0%; in experiment [3] (read-out: IC50), less than 50%; in experiment [4] (setting [8]) it was 0.36%; in experiment [4] (read-out: IC50) it was less than 50%; in experiment [5] (setting [8]), 0%; in experiment [5] (read-out: IC50), less than 50%. The inhibition at 1000 µM in experiment [6] (setting [8]) was 0%; in experiment [6] (read-out: IC50) it was less than 50%; in [7] (setting [8]), 8.4%; in [7] (read-out: IC50), less than 50%; at α-Glucosidase (Yeast) (read-out: IC50), less than 50%; at α-Glucosidase (Yeast) (setting [9]) it was 6.91%.

Take `CC(=O)NC[C@@H]1N[C@@H](CO)[C@@H](O)[C@H]1O` [C-10, 1-N-acetylamino-2,5-imino-1,2,5-trideoxy-L-altritol hydrochloride]: the values for the IC50 (in experiment [1] (read-out: IC50); against β-Mannosidase (Snail); in experiment [2]) were 129 µM, “NI (No Inhibition (less than 50% at 1000 μM))” and “NI (No Inhibition (less than 50% at 1000 μM))”, respectively. Also, the “Inhibition % at 1000 μM” value in the experiment with β-Mannosidase (Snail) was 0%; in [2], 36.3%. Further, the inhibition at 1000 µM is 0.3% in [3] (setting [8]); less than 50% in experiment [3] (read-out: IC50); 0.36% in experiment [4] (setting [8]); less than 50% in experiment [4] (read-out: IC50); 6.1% in experiment [5] (setting [8]); less than 50% in [5] (read-out: IC50). Moreover, the inhibition at 1000 µM in experiment [6] (setting [8]) is 0%; in experiment [6] (read-out: IC50), less than 50%; in experiment [7] (setting [8]) it was 4.9%; in experiment [7] (read-out: IC50), less than 50%; on α-Glucosidase (Yeast) (setting [9]), 0%; at α-Glucosidase (Yeast) (setting [10]) it was less than 50%.

Regarding `CC(=O)NC[C@@H]1N[C@H](CO)[C@@H](O)[C@H]1O` [H-10, 1-N-acetylamino-2,5-imino-1,2,5-trideoxy-L-allitol hydrochloride], the half-maximal inhibitory concentration (IC50) in [1] (read-out: IC50) is 241 µM; at β-Mannosidase (Snail) it was “NI (No Inhibition (less than 50% at 1000 μM))”; in experiment [2] it was “NI (No Inhibition (less than 50% at 1000 μM))”. Besides, the figures for the “Inhibition % at 1000 μM” value (with β-Mannosidase (Snail); in [2]) were 0% and 33.7%, respectively. The inhibition at 1000 µM in experiment [3] (setting [8]) was 0%; in [3] (read-out: IC50) it was less than 50%; in experiment [4] (setting [8]), 0%; in [4] (read-out: IC50), less than 50%; in [5] (setting [8]) it was 6.1%; in experiment [5] (read-out: IC50), less than 50%. In addition, the inhibition at 1000 µM was 0% in [6] (setting [8]); less than 50% in [6] (read-out: IC50); 22.3% in experiment [7] (setting [8]); less than 50% in [7] (read-out: IC50); 0% at α-Glucosidase (Yeast) (setting [9]); less than 50% at α-Glucosidase (Yeast) (setting [10]).

Consider `CC(=O)NC[C@H]1N[C@H](CO)[C@H](O)[C@@H]1O` [D-10, 1-N-acetylamino-2,5-imino-1,2,5-trideoxy-D-altritol hydrochloride], for which the IC50 in experiment [1] (read-out: IC50) is 0.12 µM; against β-Mannosidase (Snail) it was “NI (No Inhibition (less than 50% at 1000 μM))”; in experiment [4], 380 µM; in experiment [5] it was 65.3 µM. Moreover, in the experiment on β-Mannosidase (Snail), the “Inhibition % at 1000 μM” value stood at 0%. Further, the inhibition at 1000 µM is 0% in experiment [3] (setting [8]); less than 50% in [3] (read-out: IC50); 1.3% in experiment [6] (setting [8]); less than 50% in [6] (read-out: IC50); 1.7% in [7] (setting [8]); less than 50% in experiment [7] (read-out: IC50). Moreover, the figures for the inhibition at 1000 µM at α-Glucosidase (Yeast) (setting [9]) and on α-Glucosidase (Yeast) (setting [10]) were 0% and less than 50%, respectively.
